Measured values as given in ChEMBL document CHEMBL3352415, “Synthesis and biological evaluation of novel thiadiazole amides as potent Cdc25B and PTP1B inhibitors” (Bioorg Med Chem Lett, 2014).
pIC50: −log10 of the molar value. Active and inactive are the calls of the source. No cut-off for these calls is given here.

Assays:
[1] = target: Receptor-type tyrosine-protein phosphatase F (Homo sapiens, UniProt P10586); assay: Inhibition of LAR (unknown origin)
[2] = target: T1, Tyrosine-protein phosphatase non-receptor type 1 (Homo sapiens) (UniProt P18031); assay: Inhibition of PTP1B (unknown origin) at 5 ug/ml
T1 sequence (whole entry): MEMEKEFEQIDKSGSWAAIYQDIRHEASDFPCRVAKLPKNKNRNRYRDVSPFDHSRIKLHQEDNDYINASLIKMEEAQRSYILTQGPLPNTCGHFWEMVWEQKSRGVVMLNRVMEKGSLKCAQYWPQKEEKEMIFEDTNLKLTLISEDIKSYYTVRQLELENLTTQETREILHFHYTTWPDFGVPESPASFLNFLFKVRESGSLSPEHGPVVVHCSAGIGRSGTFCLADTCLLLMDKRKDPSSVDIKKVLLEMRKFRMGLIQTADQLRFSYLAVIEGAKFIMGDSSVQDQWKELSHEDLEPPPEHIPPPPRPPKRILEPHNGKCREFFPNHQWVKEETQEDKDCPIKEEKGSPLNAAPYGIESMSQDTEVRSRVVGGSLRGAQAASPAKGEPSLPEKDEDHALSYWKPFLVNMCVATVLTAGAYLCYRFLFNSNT

[3] = target: T2, Tyrosine-protein phosphatase non-receptor type 2 (Homo sapiens, UniProt P17706); assay: Inhibition of TCPTP (unknown origin)
T2 sequence (P17706 whole entry): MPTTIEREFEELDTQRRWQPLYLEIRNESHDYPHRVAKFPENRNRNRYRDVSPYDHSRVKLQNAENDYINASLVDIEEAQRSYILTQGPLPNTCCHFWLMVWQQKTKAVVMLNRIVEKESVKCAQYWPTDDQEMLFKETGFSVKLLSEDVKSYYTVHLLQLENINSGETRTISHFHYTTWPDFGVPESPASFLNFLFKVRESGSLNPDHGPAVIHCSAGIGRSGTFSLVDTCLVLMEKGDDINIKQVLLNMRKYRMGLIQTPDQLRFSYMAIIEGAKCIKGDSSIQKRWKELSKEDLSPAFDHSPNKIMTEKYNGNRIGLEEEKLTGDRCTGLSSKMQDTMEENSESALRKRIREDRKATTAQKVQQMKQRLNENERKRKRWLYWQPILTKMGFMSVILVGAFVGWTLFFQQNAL

[4] = target: T3, Tyrosine-protein phosphatase non-receptor type 1 (Homo sapiens, UniProt P18031); assay: Inhibition of PTP1B (unknown origin)
T3 sequence (P18031 whole entry): T1 sequence (whole entry)

[5] = target: Tyrosine-protein phosphatase non-receptor type 6 (Homo sapiens, UniProt P29350); assay: Inhibition of SHP1 (unknown origin)
[6] = target: T4, Tyrosine-protein phosphatase non-receptor type 11 (Homo sapiens, UniProt Q06124); assay: Inhibition of SHP2 (unknown origin)
T4 sequence (Q06124 whole entry): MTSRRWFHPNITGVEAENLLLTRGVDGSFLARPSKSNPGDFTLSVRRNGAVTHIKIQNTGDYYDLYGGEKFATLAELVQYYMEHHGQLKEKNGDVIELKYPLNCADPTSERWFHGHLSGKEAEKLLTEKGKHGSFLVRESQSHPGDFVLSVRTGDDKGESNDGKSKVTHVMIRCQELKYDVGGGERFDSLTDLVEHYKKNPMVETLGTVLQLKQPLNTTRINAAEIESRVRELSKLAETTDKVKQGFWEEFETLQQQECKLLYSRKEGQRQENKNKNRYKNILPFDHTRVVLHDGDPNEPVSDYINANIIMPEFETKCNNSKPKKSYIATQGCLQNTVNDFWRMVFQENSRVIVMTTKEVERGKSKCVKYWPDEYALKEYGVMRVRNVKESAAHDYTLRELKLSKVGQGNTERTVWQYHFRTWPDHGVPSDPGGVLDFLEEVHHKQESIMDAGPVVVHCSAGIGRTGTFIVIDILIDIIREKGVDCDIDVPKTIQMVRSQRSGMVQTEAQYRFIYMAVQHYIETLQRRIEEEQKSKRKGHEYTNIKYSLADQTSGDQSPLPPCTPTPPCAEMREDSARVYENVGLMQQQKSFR

[7] = target: T5, M-phase inducer phosphatase 2 (Homo sapiens, UniProt P30305); assay: Inhibition of Cdc25B (unknown origin)
T5 sequence (P30305 whole entry): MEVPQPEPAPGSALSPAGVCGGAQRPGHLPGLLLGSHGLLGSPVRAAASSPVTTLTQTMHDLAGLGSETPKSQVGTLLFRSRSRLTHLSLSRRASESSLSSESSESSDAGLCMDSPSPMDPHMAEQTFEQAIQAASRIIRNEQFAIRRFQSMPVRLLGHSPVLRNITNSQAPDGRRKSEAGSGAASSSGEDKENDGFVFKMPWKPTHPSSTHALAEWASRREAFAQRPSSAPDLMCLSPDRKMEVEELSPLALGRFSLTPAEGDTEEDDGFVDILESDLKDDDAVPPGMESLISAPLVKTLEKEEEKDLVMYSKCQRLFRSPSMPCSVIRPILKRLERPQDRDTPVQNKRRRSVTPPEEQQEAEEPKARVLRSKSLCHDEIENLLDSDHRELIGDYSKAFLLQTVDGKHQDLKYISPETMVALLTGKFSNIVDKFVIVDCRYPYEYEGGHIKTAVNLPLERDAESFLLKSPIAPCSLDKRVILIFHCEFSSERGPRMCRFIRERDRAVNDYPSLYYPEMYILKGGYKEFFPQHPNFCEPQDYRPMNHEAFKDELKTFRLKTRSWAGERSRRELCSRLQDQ

[8] = target: T6, M-phase inducer phosphatase 2 (Homo sapiens) (UniProt P30305); assay: Inhibition of Cdc25B (unknown origin) at 5 ug/ml
T6 sequence (whole entry): T5 sequence (P30305 whole entry)

[9] = target: T1, Tyrosine-protein phosphatase non-receptor type 1 (Homo sapiens); assay: Mixed inhibition of PTP1B (unknown origin) by Lineweaver-Burk plot

Tyrosine-protein phosphatase non-receptor type 6, sequence (P29350 whole entry): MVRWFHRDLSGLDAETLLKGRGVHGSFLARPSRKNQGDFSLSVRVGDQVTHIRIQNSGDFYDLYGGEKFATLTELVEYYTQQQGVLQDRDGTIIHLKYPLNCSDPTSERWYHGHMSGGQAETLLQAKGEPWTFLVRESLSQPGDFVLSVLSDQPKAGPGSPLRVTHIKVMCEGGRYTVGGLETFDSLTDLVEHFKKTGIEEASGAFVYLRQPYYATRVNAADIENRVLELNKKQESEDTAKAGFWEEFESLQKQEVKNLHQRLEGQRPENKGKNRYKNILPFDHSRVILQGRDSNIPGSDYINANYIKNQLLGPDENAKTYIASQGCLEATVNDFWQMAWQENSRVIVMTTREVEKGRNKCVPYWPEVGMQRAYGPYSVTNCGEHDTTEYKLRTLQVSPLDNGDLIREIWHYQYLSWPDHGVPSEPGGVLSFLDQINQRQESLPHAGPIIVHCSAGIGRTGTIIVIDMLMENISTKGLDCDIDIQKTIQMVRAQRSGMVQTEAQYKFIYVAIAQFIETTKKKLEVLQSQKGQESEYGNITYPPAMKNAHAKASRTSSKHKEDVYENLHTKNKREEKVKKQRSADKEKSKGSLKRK
Receptor-type tyrosine-protein phosphatase F, sequence (P10586 whole entry): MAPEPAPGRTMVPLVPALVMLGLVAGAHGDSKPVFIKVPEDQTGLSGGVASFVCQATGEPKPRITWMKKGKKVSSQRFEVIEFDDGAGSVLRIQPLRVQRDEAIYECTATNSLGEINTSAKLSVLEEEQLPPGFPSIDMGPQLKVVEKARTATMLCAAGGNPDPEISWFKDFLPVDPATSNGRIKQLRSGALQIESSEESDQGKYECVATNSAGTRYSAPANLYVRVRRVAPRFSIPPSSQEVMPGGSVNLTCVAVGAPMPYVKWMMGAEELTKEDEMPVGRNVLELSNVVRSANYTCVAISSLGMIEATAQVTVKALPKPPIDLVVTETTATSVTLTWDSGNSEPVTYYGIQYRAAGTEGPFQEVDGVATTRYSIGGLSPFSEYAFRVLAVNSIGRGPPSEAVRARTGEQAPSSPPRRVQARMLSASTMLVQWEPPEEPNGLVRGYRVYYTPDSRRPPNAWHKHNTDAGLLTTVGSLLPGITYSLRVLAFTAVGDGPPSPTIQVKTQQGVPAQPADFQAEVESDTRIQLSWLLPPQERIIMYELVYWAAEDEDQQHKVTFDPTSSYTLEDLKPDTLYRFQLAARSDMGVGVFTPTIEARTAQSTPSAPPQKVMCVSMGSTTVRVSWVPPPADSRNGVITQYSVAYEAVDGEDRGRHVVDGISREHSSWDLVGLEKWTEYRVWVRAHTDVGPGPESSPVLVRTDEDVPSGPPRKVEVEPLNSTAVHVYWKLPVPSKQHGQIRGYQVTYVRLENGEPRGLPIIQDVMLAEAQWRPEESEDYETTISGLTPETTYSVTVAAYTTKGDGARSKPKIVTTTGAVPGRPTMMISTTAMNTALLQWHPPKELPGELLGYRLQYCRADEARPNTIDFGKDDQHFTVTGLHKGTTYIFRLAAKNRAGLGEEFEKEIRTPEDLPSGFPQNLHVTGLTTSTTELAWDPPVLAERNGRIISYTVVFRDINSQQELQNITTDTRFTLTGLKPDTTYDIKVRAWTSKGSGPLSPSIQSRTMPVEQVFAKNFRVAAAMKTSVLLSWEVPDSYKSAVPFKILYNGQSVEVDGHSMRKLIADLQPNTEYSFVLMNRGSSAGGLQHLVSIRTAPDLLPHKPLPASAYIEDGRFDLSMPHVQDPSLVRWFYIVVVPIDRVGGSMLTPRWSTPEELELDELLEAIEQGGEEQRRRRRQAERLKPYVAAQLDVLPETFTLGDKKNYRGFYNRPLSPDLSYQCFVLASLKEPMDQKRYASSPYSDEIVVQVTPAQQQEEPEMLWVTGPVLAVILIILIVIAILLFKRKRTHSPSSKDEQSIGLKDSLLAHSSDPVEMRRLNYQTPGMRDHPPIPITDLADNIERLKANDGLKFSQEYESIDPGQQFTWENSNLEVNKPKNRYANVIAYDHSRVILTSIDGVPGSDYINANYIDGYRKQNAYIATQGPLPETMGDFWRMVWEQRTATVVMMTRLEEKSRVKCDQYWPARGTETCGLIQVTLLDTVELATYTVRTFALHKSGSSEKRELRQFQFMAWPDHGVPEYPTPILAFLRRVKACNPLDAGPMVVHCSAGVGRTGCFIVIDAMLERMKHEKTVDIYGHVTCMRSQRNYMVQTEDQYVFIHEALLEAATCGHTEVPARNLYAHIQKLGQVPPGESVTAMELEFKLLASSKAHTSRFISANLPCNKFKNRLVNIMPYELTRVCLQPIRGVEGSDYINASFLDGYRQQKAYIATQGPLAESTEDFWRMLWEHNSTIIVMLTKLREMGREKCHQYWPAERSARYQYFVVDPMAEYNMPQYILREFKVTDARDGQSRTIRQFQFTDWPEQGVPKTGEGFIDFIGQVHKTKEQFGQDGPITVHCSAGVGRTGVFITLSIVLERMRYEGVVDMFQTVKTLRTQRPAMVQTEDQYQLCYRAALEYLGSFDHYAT

For O=C(Nc1nnc(-c2ccc(Oc3ccc([N+](=O)[O-])cc3[N+](=O)[O-])cc2)s1)c1ccccc1F, the IC50 [1] was “Not Active”, the inhibition [2] was 88.4% and the IC50 [3] was “Not Active”. The pIC50 [4] was 5.45, the IC50 [5] was “Not Active” and the IC50 [6] was “Not Active”. It also gave a pIC50 [7] of 5.27 and an inhibition [8] of 99.3%.
With O=C(Nc1nnc(-c2ccc(Oc3ccc([N+](=O)[O-])cc3)cc2)s1)c1ccc([N+](=O)[O-])cc1 the IC50 [1] was “Not Active”, the inhibition [2] was 95.2% and the IC50 [3] was “Not Active”. The pIC50 [4] was 5.44, the IC50 [5] was “Not Active” and the IC50 [6] was “Not Active”. It also gave a pIC50 [7] of 5.07 and an inhibition [8] of 96.4%.
O=C(Cc1cccc2ccccc12)Nc1nnc(-c2ccc(Oc3ccc([N+](=O)[O-])cc3)cc2)s1 was tested, and the IC50 [1] was “Not Active”, the inhibition [2] was 74.1% and the IC50 [3] was “Not Active”. For the same compound, the pIC50 [4] was 5.12, the IC50 [5] was “Not Active” and the IC50 [6] was “Not Active”. For the same compound, the pIC50 [7] was 5.29 and the inhibition [8] was 90.4%.
For Cc1ccccc1C(=O)Nc1nnc(-c2ccc(Oc3ccc([N+](=O)[O-])cc3[N+](=O)[O-])cc2)s1, the IC50 [1] was “Not Active”, the inhibition [2] was 84% and the IC50 [3] was “Not Active”. The pIC50 [4] was 5.07, the IC50 [5] was “Not Active” and the IC50 [6] was “Not Active”. It also gave a pIC50 [7] of 5.19 and an inhibition [8] of 93.7%.
In the case of COc1ccc(C(=O)Nc2nnc(-c3ccc(Oc4ccc([N+](=O)[O-])cc4)cc3)s2)cc1, the IC50 [1] was “Not Active”, the inhibition [2] was 72.6% and the IC50 [3] was “Not Active”. For the same compound, the pIC50 [4] was 5.04, the IC50 [5] was “Not Active” and the IC50 [6] was “Not Active”. For the same compound, the pIC50 [7] was 5.56 and the inhibition [8] was 88.8%.
O=C(Nc1nnc(-c2ccc(Oc3ccc([N+](=O)[O-])cc3)cc2)s1)c1ccccc1 was tested, and the IC50 [1] was “Not Active”, the inhibition [2] was 79.6% and the IC50 [3] was “Not Active”. For the same compound, the pIC50 [4] was 5.00, the IC50 [5] was “Not Active” and the IC50 [6] was “Not Active”. For the same compound, the pIC50 [7] was 5.11 and the inhibition [8] was 86.3%.
In the case of O=C(Nc1nnc(-c2ccc(Oc3ccc([N+](=O)[O-])cc3[N+](=O)[O-])cc2)s1)c1ccc([N+](=O)[O-])cc1, the IC50 [1] was “Not Active”, the inhibition [2] was 81.8% and the IC50 [3] was “Not Active”. The pIC50 [4] was 4.80, the IC50 [5] was “Not Active” and the IC50 [6] was “Not Active”. The pIC50 [7] was 5.03 and the inhibition [8] was 97.7%.
O=C(Cc1cccc2ccccc12)Nc1nnc(-c2ccc(Oc3ccc([N+](=O)[O-])cc3[N+](=O)[O-])cc2)s1 was tested, and the IC50 [1] was “Not Active”, the inhibition [2] was 82.1% and the IC50 [3] was “Not Active”. The pIC50 [4] was 5.22, the IC50 [5] was “Not Active” and the IC50 [6] was “Not Active”. The pIC50 [7] was 5.25 and the inhibition [8] was 88.9%.
For COc1cc(C(=O)Nc2nnc(-c3ccc(Oc4ccc([N+](=O)[O-])cc4[N+](=O)[O-])cc3)s2)cc(OC)c1OC, the IC50 [1] was “Not Active”, the inhibition [2] was 84.2% and the IC50 [3] was “Not Active”. The pIC50 [4] was 5.28, the IC50 [5] was “Not Active” and the IC50 [6] was “Not Active”. It also gave a pIC50 [7] of 5.40 and an inhibition [8] of 84.5%.
In the case of COc1cccc(C(=O)Nc2nnc(-c3ccc(Oc4ccc([N+](=O)[O-])cc4[N+](=O)[O-])cc3)s2)c1, the IC50 [1] was “Not Active”, the inhibition [2] was 86.3% and the IC50 [3] was “Not Active”. For the same compound, the pIC50 [4] was 4.97, the IC50 [5] was “Not Active” and the IC50 [6] was “Not Active”. It also gave a pIC50 [7] of 5.08 and an inhibition [8] of 92.6%.
O=C(Nc1nnc(-c2ccc(Oc3ccc([N+](=O)[O-])cc3[N+](=O)[O-])cc2)s1)c1cccc([N+](=O)[O-])c1 was tested, and the inhibition [9] was “Active”, the IC50 [1] was “Not Active” and the inhibition [2] was 85.6%. For the same compound, the IC50 [3] was “Not Active”, the pIC50 [4] was 5.57 and the IC50 [5] was “Not Active”. The IC50 [6] was “Not Active”, the pIC50 [7] was 5.60 and the inhibition [8] was 99.2%.
Cc1ccc(C(=O)Nc2nnc(-c3ccc(Oc4ccc([N+](=O)[O-])cc4[N+](=O)[O-])cc3)s2)cc1 was tested, and the IC50 [1] was “Not Active”, the inhibition [2] was 85.3% and the IC50 [3] was “Not Active”. For the same compound, the pIC50 [4] was 4.97, the IC50 [5] was “Not Active” and the IC50 [6] was “Not Active”. The pIC50 [7] was 5.61 and the inhibition [8] was 94.5%.
O=C(Cc1ccccc1)Nc1nnc(-c2ccc(Oc3ccc([N+](=O)[O-])cc3[N+](=O)[O-])cc2)s1 was tested, and the IC50 [1] was “Not Active”, the inhibition [2] was 90.9% and the IC50 [3] was “Not Active”. The pIC50 [4] was 5.39, the IC50 [5] was “Not Active” and the IC50 [6] was “Not Active”. For the same compound, the pIC50 [7] was 5.48 and the inhibition [8] was 91.7%.
O=C(Nc1nnc(-c2ccc(Oc3ccc([N+](=O)[O-])cc3)cc2)s1)c1cccnc1 was tested, and the IC50 [1] was “Not Active”, the inhibition [2] was 82.4% and the IC50 [3] was “Not Active”. For the same compound, the pIC50 [4] was 5.00, the IC50 [5] was “Not Active” and the IC50 [6] was “Not Active”. It also gave a pIC50 [7] of 5.10 and an inhibition [8] of 97%.
With O=C(Nc1nnc(-c2ccc(Oc3ccc([N+](=O)[O-])cc3)cc2)s1)c1ccco1 the IC50 [1] was “Not Active”, the inhibition [2] was 75.1% and the IC50 [3] was “Not Active”. For the same compound, the pIC50 [4] was 4.95, the IC50 [5] was “Not Active” and the IC50 [6] was “Not Active”. For the same compound, the pIC50 [7] was 5.19 and the inhibition [8] was 87.7%.
For Cc1ccccc1C(=O)Nc1nnc(-c2ccc(Oc3ccc([N+](=O)[O-])cc3)cc2)s1, the IC50 [1] was “Not Active”, the inhibition [2] was 60.4% and the IC50 [3] was “Not Active”. The pIC50 [4] was 5.09, the IC50 [5] was “Not Active” and the IC50 [6] was “Not Active”. The pIC50 [7] was 5.03 and the inhibition [8] was 94%.
In the case of O=C(Nc1nnc(-c2ccc(Oc3ccc([N+](=O)[O-])cc3)cc2)s1)c1ccccc1F, the IC50 [1] was “Not Active”, the inhibition [2] was 60.6% and the IC50 [3] was “Not Active”. The pIC50 [4] was 4.77, the IC50 [5] was “Not Active” and the IC50 [6] was “Not Active”. It also gave a pIC50 [7] of 4.99 and an inhibition [8] of 63.6%.
O=C(Nc1nnc(-c2ccc(Oc3ccc([N+](=O)[O-])cc3[N+](=O)[O-])cc2)s1)c1ccccc1[N+](=O)[O-] was tested, and the IC50 [1] was “Not Active”, the inhibition [2] was 87.4% and the IC50 [3] was “Not Active”. For the same compound, the pIC50 [4] was 5.09, the IC50 [5] was “Not Active” and the IC50 [6] was “Not Active”. It also gave a pIC50 [7] of 4.80 and an inhibition [8] of 88.3%.
